# Assay results from ChEMBL document CHEMBL5584322, “Nonpeptidic Irreversible Inhibitors of SARS-CoV-2 Main Protease with Potent Antiviral Activity” (J Med Chem, 2024).
# Activity calls are given as the source filed them. The calls are words filed in the database; no cut-off is given here.
# Experiments:
# [1] = target: T1, Replicase polyprotein 1ab (Severe acute respiratory syndrome coronavirus 2, UniProt P0DTD1); assay: Inhibition of full-length SARS CoV-2 MPro expressed in Escherichia coli BL21(DE3) using Boc-Abu-Tle-Leu-Gln-AMC as substrate incubated for 10 mins by fluorescence based assay
# [2] = Stability of compound in 1 mM GSH at 100 uM incubated for 1 hr by HPLC-ESI-MS analysis; type: ADME
# [3] = target: Replicase polyprotein 1ab (Severe acute respiratory syndrome coronavirus 2) (UniProt P0DTD1); assay: Inhibition of His-tagged recombinant SARS CoV-2 MPro expressed in Escherichia coli BL21(DE3) using Boc-Abu-Tle-Leu-Gln-AMC as substrate at 1 uM incubated for shorter period by fluorescence based assay relative to control
# [4] = test system: Severe acute respiratory syndrome-related coronavirus; assay: Inhibition of SARS CoV-1 MPro using Boc-Abu-Tle-Leu-Gln-AMC as substrate incubated for 10 mins by fluorescence based assay
# [5] = Inhibition of MERS CoV MPro using Boc-Abu-Tle-Leu-Gln-AMC as substrate incubated for 10 mins by fluorescence based assay; parameters: species or system Middle East respiratory syndrome-related coronavirus
# [6] = Stability of compound in 1 mM GSH at 10 uM incubated for 1 hr by HPLC-ESI-MS analysis; type: ADME
# [7] = target: T1, Replicase polyprotein 1ab; assay: Inhibition of SARS CoV-2 MPro
# [8] = target: Replicase polyprotein 1ab (Severe acute respiratory syndrome coronavirus 2) (UniProt P0DTD1); assay: Inhibition of His-tagged recombinant SARS CoV-2 MPro expressed in Escherichia coli BL21(DE3) using Boc-Abu-Tle-Leu-Gln-AMC as substrate at 1 uM incubated for >6 hrs by fluorescence based assay relative to control
# SARS-CoV-2 = assay: microbe, parasite or virus in culture; details: Severe acute respiratory syndrome coronavirus 2, Calu-3
# Calu-3 [9] = assay: Cytotoxicity against human Calu-3 cells at 10 uM; type: toxicity, cell-based; details: calu-3, 10 µM
# [10] = Stability of compound in 1 mM GSH assessed as compound remaining at 10 to 100 uM incubated for 1 hr by HPLC-ESI-MS analysis; type: ADME; details: 1 mM GSH solution, dose 10-100 µM, read-out: Stability
# [11] = Stability of compound in 1 mM GSH assessed as compound remaining at 100 uM incubated for 1 hr by HPLC-ESI-MS analysis; type: ADME; details: 1 mM GSH solution, read-out: Stability
# [12] = target: Replicase polyprotein 1ab (Severe acute respiratory syndrome coronavirus 2) (UniProt P0DTD1); assay: Inhibition of full-length SARS CoV-2 MPro expressed in Escherichia coli BL21(DE3) using Boc-Abu-Tle-Leu-Gln-AMC as substrate at 1 uM incubated for 10 mins by fluorescence based assay relative to control
# Calu-3 [13] = assay: (§1) Cytotoxicity against human Calu-3 cells; type: toxicity, cell-based; details: calu-3, 10 µM, dose 10 µM
# [14] = as §1; type: toxicity, cell-based; details: Calu-3 cells
structure (smiles),measurement,setting,value
O=C(Oc1cncc(Cl)c1)c1ccc(F)cc1,IC50,[1],119 nM
COc1ccc(C(=O)Oc2cncc(Cl)c2)c(OC)c1,IC50,[1],1670 nM
same,Stability,[2],Stable
O=C(Oc1cncc(Cl)c1)c1ccc(Cl)cc1,IC50,[1],218 nM
O=C(Oc1cncc(Cl)c1)c1ccc(Cl)cc1Cl,inhibition,[3],100%
same,inhibition,[4],Active
same,IC50,[1],108 nM
COc1cccc(C(=O)Oc2cncc(Cl)c2)c1,IC50,[5],112 nM
same,inhibition,[4],Active
same,Stability,[6],Unstable
same,IC50,[1],5.13 nM
O=C(Oc1cncc(Cl)c1)c1ccc(-c2cccnc2)cc1,IC50,[1],137 nM
O=C(Oc1cncc(Cl)c1)c1cccs1,Ki,[7],81.1 nM
O=C(Oc1cncc(Br)c1)c1ccccc1Cl,IC50,[1],39.2 nM
CCOc1ccc(C(=O)Oc2cncc(Br)c2)c(F)c1,Stability,[6],Unstable
same,IC50,[1],107 nM
same,inhibition,[8],100%
CCOc1ccc(C(=O)Oc2cncc(Cl)c2)c(F)c1,EC50,SARS-CoV-2,2.68 nM
same,inhibition,[4],inactive
same,IC50,[1],47.4 nM
same,inhibition,[8],100%
same,Activity,Calu-3 [9],Non-Toxic
O=C(Oc1cncc(Cl)c1)c1ccc(Cl)c(Cl)c1,inhibition,[4],Active
same,IC50,[1],96.4 nM
COc1ccccc1C(=O)Oc1cncc(Cl)c1,inhibition,[4],inactive
same,IC50,[1],264 nM
O=C(Oc1cncc(Cl)c1)c1cccc(-c2ccccc2)c1,Stability,[6],Unstable
same,IC50,[1],117 nM
same,Stability,[2],Stable
O=C(Oc1cncc(Br)c1)c1ccc(Cl)cc1,IC50,[1],95.7 nM
O=C(Oc1cncc(Br)c1)c1ccccc1,IC50,[1],40.5 nM
CCOc1ccc(C(=O)Oc2cncc(Cl)c2)cc1,IC50,[1],329 nM
same,"remaining at 1 h, up to 100 µM",[10],50%
O=C(Oc1cncc(Cl)c1)c1ccc(I)cc1F,inhibition,[4],inactive
same,IC50,[1],14.9 nM
Cc1cc(Cl)ccc1C(=O)Oc1cncc(Cl)c1,IC50,[1],3400 nM
CNc1ccc(C(=O)Oc2cncc(Cl)c2)cc1,IC50,[1],3940 nM
same,"remaining at 1 h, up to 100 µM",[10],50%
same,Stability,[2],Stable
O=C(Oc1cncc(Br)c1)c1cccc(Cl)c1,IC50,[1],50.5 nM
O=C(Oc1cncc(Cl)c1)c1c(F)cccc1F,inhibition,[4],inactive
same,IC50,[1],29.2 nM
Nc1ccc(C(=O)Oc2cncc(Cl)c2)c(F)c1,IC50,[1],943 nM
same,Stability,[2],Stable
O=C(Oc1cncc(Br)c1)c1ccc(Cl)cc1F,inhibition,[3],100%
same,IC50,[1],35.6 nM
COc1cccc(C(=O)Oc2cncc(Br)c2)c1,IC50,[1],19.9 nM
N=C(N)Nc1ccc(C(=O)Oc2cncc(Cl)c2)cc1,IC50,[1],65.9 nM
COc1cc(F)ccc1C(=O)Oc1cncc(Cl)c1,IC50,[1],249 nM
O=C(Oc1cncc(Br)c1)c1ccc(OCc2ccccc2)cc1F,IC50,[1],232 nM
same,inhibition,[8],100%
O=C(Oc1cncc(Cl)c1)c1cccc2[nH]ccc12,Stability,[6],Stable
same,"remaining at 1 h, 100 µM",[11],> 70%
O=C(Oc1cncc(Br)c1)c1ccc(Cl)cc1Cl,inhibition,[3],100%
same,IC50,[1],84.5 nM
O=C(Oc1cncc(Cl)c1)c1cc2cc(Cl)ccc2[nH]1,Stability,[6],Unstable
same,"remaining at 1 h, 100 µM",[11],> 70%
O=C(Oc1cncc(Cl)c1)c1cccc(Cl)c1,IC50,[1],55.1 nM
COc1ccc(F)c(C(=O)Oc2cncc(Cl)c2)c1F,IC50,[1],30.3 nM
O=C(Oc1cncc(Cl)c1)c1ccccc1-c1ccccc1,Stability,[6],Unstable
same,IC50,[1],> 1000 nM
same,inhibition,[12],6%
same,Stability,[2],Stable
O=C(Oc1cncc(Cl)c1)c1ccccc1F,inhibition,[4],Active
same,IC50,[1],25.9 nM
O=C(Oc1cncc(Cl)c1)c1ccc(OCc2ccccc2)cc1F,inhibition,[4],inactive
same,Stability,[6],Unstable
same,IC50,[1],322 nM
same,inhibition,[8],100%
same,Stability,[2],Stable
CC(C)(C)[C@H](NC(=O)C(F)(F)F)C(=O)N1C[C@H]2[C@@H]([C@H]1C(=O)N[C@H](C#N)C[C@@H]1CCNC1=O)C2(C)C,Stability,[6],Stable
same,Stability,[2],Stable
O=C(Oc1cncc(Cl)c1)c1ccncc1,IC50,[1],725 nM
O=C(Oc1cncc(Cl)c1)c1cc(F)cc(F)c1,IC50,[1],38.3 nM
O=C(Oc1cncc(Cl)c1)c1ccc(Br)cc1F,inhibition,[4],inactive
same,IC50,[1],34.9 nM
O=C(Oc1cncc(Cl)c1)c1ccccc1,IC50,[1],40.4 nM
COc1cccc(C(=O)Oc2cncc(Br)c2)c1OC,IC50,[1],78.2 nM
same,inhibition,[8],100%
COc1ccc(C(=O)Oc2cncc(Cl)c2)cc1Cl,Stability,[6],Unstable
same,IC50,[1],247 nM
same,Stability,[2],Stable
COc1cccc(C(=O)Oc2cncc(Cl)c2)c1OC,inhibition,[4],Active
same,IC50,[1],84.5 nM
same,inhibition,[8],100%
O=C(Oc1cncc(Cl)c1)c1ccccc1Cl,IC50,[1],60.4 nM
O=C(Oc1cncc(Br)c1)c1ccc(Cl)c(Cl)c1,IC50,[1],37.5 nM
O=C(Oc1cncc(Br)c1)c1ccccc1F,IC50,[1],10.7 nM
O=C(Oc1cncc(Cl)c1)c1cccc(Cl)c1Cl,inhibition,[4],Active
same,IC50,[1],126 nM
COc1ccc(C(=O)Oc2cncc(Cl)c2)cc1,EC50,SARS-CoV-2,10.8 nM
same,inhibition,[4],inactive
same,IC50,[1],164 nM
same,"remaining at 1 h, up to 100 µM",[10],50%
same,inhibition,[8],100%
same,Activity,Calu-3 [9],Non-Toxic
same,Stability,[2],Stable
O=C(Oc1cncc(Br)c1)c1ccc(I)cc1F,IC50,[1],33.5 nM
same,Stability,[2],Stable
O=C(Oc1cncc(Cl)c1)c1cc(Cl)cc(Cl)c1,IC50,[1],133 nM
CCCCCCCOc1ccc(C(=O)Oc2cncc(Cl)c2)cc1,IC50,[1],> 1000 nM
same,"remaining at 1 h, up to 100 µM",[10],50%
same,inhibition,[12],8%
same,Stability,[2],Stable
COc1c(Cl)ccc(C(=O)Oc2cncc(Cl)c2)c1F,IC50,[1],70.7 nM
O=C(Oc1cncc(Cl)c1)c1ccc(Cl)cc1F,inhibition,[3],100%
same,inhibition,[4],inactive
same,IC50,[1],45.7 nM
O=C(Oc1cncc(Cl)c1)c1cccnc1,IC50,[1],758 nM
COc1ccc(C(=O)Oc2cncc(Br)c2)cc1,EC50,SARS-CoV-2,1860 nM
same,IC50,[1],96.3 nM
same,inhibition,[8],100%
same,Activity,Calu-3 [9],Non-Toxic
same,Stability,[2],Stable
O=C(Oc1cncc(Cl)c1)c1ccc(-c2ccccc2)cc1,EC50,SARS-CoV-2,58.7 nM
same,Activity,Calu-3 [13],Dose-Dependent Effect
same,CC50,[14],14700 nM
same,inhibition,[4],inactive
same,IC50,[1],150 nM
same,"remaining at 1 h, up to 100 µM",[10],50%
same,Stability,[2],Stable
O=C(Oc1cncc(Cl)c1)c1cccc(F)c1,IC50,[1],46.4 nM
O=C(Oc1cncc(Cl)c1)c1ccc(I)cc1,inhibition,[4],inactive
same,Stability,[6],Unstable
same,IC50,[1],91.2 nM
N#Cc1ccc(C(=O)Oc2cncc(Cl)c2)c(F)c1,IC50,[1],47 nM
